The source of these data is ChEMBL document CHEMBL4706483, “Discovery of novel phosphatidylcholine-specific phospholipase C drug-like inhibitors as potential anticancer agents” (Eur J Med Chem, 2020).

Calls of active or inactive are those of the source. No cut-off for these calls is given here.

In this experiment the target is Phospholipase C (Bacillus cereus) (UniProt P09598). Put plainly: Inhibition of recombinant Bacillus cereus N-terminal His6-tagged full length PC-PLC 3C Protease cleavage site expressed in Escherichia coli BL21(DE3) cells at 10 uM using phosphatidylcholine as substrate by amplex red assay relative to control.
Sequence of Phospholipase C (Bacillus cereus) (P09598 whole entry, looked up): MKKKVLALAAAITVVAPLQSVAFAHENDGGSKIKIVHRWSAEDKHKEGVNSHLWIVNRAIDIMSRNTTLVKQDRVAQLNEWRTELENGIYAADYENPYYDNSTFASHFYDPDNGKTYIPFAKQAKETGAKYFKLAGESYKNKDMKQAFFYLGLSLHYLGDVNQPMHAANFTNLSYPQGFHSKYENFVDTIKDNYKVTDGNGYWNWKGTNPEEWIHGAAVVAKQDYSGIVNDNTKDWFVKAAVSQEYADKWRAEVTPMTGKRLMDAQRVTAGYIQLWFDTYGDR
For `O=C(O)c1cc(NCc2ccccc2Cl)ccc1N1CCOCC1`, the inhibition was determined as 89%. Consider `CN1CCN(c2ccc(NCc3cccc(Br)c3)cc2C(=O)O)CC1`, for which the inhibition entry was “inactive”. The figure for `O=C(O)C1Cc2c([nH]c3ccccc23)C(c2ccc(C(F)(F)F)cc2)N1` (stereo not drawn) is 37%; for `COc1cc(C2NC(C(=O)O)Cc3c2[nH]c2ccccc32)cc(OC)c1O` (stereo not drawn) it is 60%; for `Cc1[nH]c2ccc(C(=O)O)cc2c1CC(=O)O` it is 60%. `O=C(O)c1ccccc1N1CCOCC1`: the inhibition result is “inactive”. `Cc1[nH]c2ccc(Cl)cc2c1CC(=O)O`: the inhibition was found to be 65%. As for `O=C(O)C1Cc2c([nH]c3ccccc23)C(c2ccc(Cl)cc2Cl)N1` (stereo not drawn), the figure is 44%. The entry for `O=C(O)c1cc(NCc2ccccc2C(F)(F)F)ccc1N1CCOCC1` is “inactive”; for `COc1cccc(C(=O)Nc2ccc(O)cc2C(=O)O)c1` it is 47%.

`O=C(O)C1Cc2c([nH]c3ccccc23)C(c2ccc(O)c(O)c2)N1` (stereo not drawn): the inhibition came to 75%. The figure for `O=C(O)c1cc(NCc2ccc(Cl)cc2Cl)ccc1N1CCOCC1` is 65%; for `O=C(O)c1cc(NCc2cccc(Cl)c2)ccc1N1CCOCC1` it is 89%; for `O=C(O)c1cccc(NS(=O)(=O)c2ccc(C3CCCCC3)cc2)c1` it is 25%. The figure for `O=C(O)c1cc(NCc2ccccc2)ccc1N1CCOCC1` is 67%; for `O=C(O)c1cc(NCc2cccc(Br)c2)ccc1N1CCOCC1` it is 80%. As for `CSc1ccc(CNc2ccc(N3CCOCC3)c(C(=O)O)c2)cc1`, the entry is “inactive”; as for `CN(C)c1ccc(C2NC(C(=O)O)Cc3c2[nH]c2ccccc32)cc1` (stereo not drawn), 43%.

By inhibition is commonly meant the share of the control response that was lost under treatment.
